Assays:
[1] = Modulation of calcium release-activated calcium channel in mitomycin C-stimulated human PBMC assessed as [3H]thymidine incorporation after 4 days by topcount scintillation counting analysis
[2] = Modulation of calcium release-activated calcium channel in human whole blood T cells assessed as inhibition of thapsigargin-stimulated IL2 production incubated 30 mins prior to thapsigargin-challenge measured after overnight incubation by AlphaLISA IL-2 assay; assay type: cell-based; conditions: T-cell
[3] = Modulation of calcium release-activated calcium channel in human jurkat cells assessed as inhibition of PHA/PMA/ionomycin-stimulated IL2 production incubated 10 mins prior to PHA/PMA/ionomycin-challenge measured after 18 to 20 hrs; assay type: cell-based

SMILES | IC50 [1] [nM] | IC50 [2] [nM] | IC50 [3] [nM]
CCc1sc(-c2cccnc2)nc1-c1ccc2c(c1)OCC(c1c(F)cccc1F)N2 (stereo not drawn) | 100 | 520 | 30
CCc1sc(-c2ccncc2)nc1-c1ccc2c(c1)OCC(c1c(F)cccc1F)N2 (stereo not drawn) | 440 | 320 | 20
CCc1sc(-c2cc(C)on2)nc1-c1ccc2c(c1)OCC(c1c(F)cccc1F)N2 (stereo not drawn) | 430 | 360 | 30

Continued by falling IC50 [1], values first:

IC50 [1] [nM] | IC50 [2] [nM] | IC50 [3] [nM] | SMILES
330 | 320 | 70 | CCn1nc(-c2cccnc2)cc1-c1ccc2c(c1)OCC(c1c(F)cccc1F)N2 (stereo not drawn)
190 | 430 | 30 | Cc1sc(-c2cccnc2)nc1-c1ccc2c(c1)OCC(c1c(F)cccc1F)N2 (stereo not drawn)
180 | 870 | 20 | CCc1sc(-c2cnccn2)nc1-c1ccc2c(c1)OCC(c1c(F)cccc1F)N2 (stereo not drawn)

Reference: ChEMBL document CHEMBL3091425, “Benzoxazine Derivatives As CRAC Modulators” (ACS Med Chem Lett, 2013)
